The values that follow come from patent US20090124650A1 (priority 2007, published 2009).

Series [1] in a line: In vivo ethanol study: oxymorphone 40 mg ER tablets with 240 mL of 40%, 20%, 4%, 0% ethanol. On the set-up: species or system human. How it is done: The study design was a randomized, open-label, single-dose, four-period crossover in 28 subjects. […] Subjects were fasted overnight for at least 8 hours prior to dosing. Water was allowed ad lib except from 1 hour before dosing until 1 hour after dosing. A standardized meal was served 4 hours and 10 hours after dosing.
A) 40% ethanol B) 20% ethanol C) 4% ethanol D) 0% ethanol
Serial blood samples were obtained from 0 to 48 hours after dosing. Plasma samples were assayed for oxymorphone. Pharmacokinetic parameters for oxymorphone were determined using non-compartmental methods. […] Any treatment in which a subject vomited during the dosing interval (0-12 hours) was excluded from the primary pharmacokinetic analysis.

The nature of series [2]: Bioavailability in elderly, hepatically and renally impaired patients.
Series [3] is described as follows: Study 5: controlled release 40 mg vs immediate release 4x10 mg, fed and fasting. It counts as in vivo, human. The note with it: food effect. An excerpt:
Subjects randomized to Treatment 5A and Treatment 5C, as described below, were in a fasted state following a 10-hour overnight fast. […] There was a 14-day washout interval between the four dose administrations. The subjects were confined to the clinic during each study period. Subject assigned to receive Treatment 5A and Treatment 5B were discharged from the clinic on Day 3 following the 48-hour procedures, and subjects assigned to receive Treatment 5C and Treatment 5D were discharged from the clinic on Day 2 following the 36-hour procedures. On Day 1 of each study period the subjects received one of four treatments:
Blood samples (7 ml) were collected during each study period at the 0 hour (predose), and at 0.25, 0.5, 0.75, 1.0, 1.5, 2, 3, 4, 5, 6, 8, 10, 12, 24, 36, 48, 60, and 72 hours post-dose (19 samples) for subjects randomized to all Treatments.

For series [4] the following is noted: in vivo; cited from earlier work.
Where [5] appears, read: elderly patients (65 years old or older).

For `CN1CC[C@]23c4c5ccc(O)c4O[C@H]2C(=O)CC[C@@]3(O)[C@H]1C5` [oxymorphone, 14-hydroxydihydromorphinone], the “AUC change with ethanol” value in series [1] (240 mL of 20% or 4% ethanol concomitantly) is on record as “essentially unchanged”; in series [1] (240 mL of 40% ethanol concomitantly), “not statistically significantly changed”. In addition, in series [1] (240 mL of 40% ethanol), the “Cmax increase in individual subjects, up to” value is listed as “up to 270%”. The “Cmax increase (average) vs 0% ethanol” value in series [1] (240 mL of 40% ethanol, excluding subjects who vomited) is given as 70%. For the same compound, the “increase in Cmax” value in series [2] (setting [5]) was “about 1.5 fold”. Further, the increase in bioavailability entry in series [2] (setting [5]) is on record as “about 1.4 fold”. In addition, the bioavailability result in series [2] (hepatically impaired patients) and in series [2] (renally impaired patients) was “increased” in each case. Further, the “Cmax greater with a meal than without” value in series [3] is listed as 50%. For the same compound, the oral bioavailability result in series [4] is listed as “about 10%”.
